Test results taken from patent publication US9707178B2, “Pharmaceutical composition” (Lek Pharmaceuticals, d.d., priority 2006, dated 2017).

Experiments:
[1] = pH of excipient measured by a glass electrode, 1 g in 100 g of water at room temperature; assay type: physicochemical; settings: aqueous solution or suspension
From the text: In general we observed a best stabilization where each of the constituents being incorporated into a composition has a pH less than 9, preferably less than 8; but can have pH above 5. […] We have concluded that the excipients, being in contact with olmesartan medoxomil, being incorporated into a composition should preferably have a pH less that 8 if measured by a glass electrode in an aqueous solution or suspension containing 1 g of said excipient in 100 g of water at room temperature. Thus the pH of excipents uses in examples is as follows; lactose: about 5.2, L-HPC: about 6.7, MCC: about 6.7, stearic acid: about 5.4, Mg stearate: about 9.5, coating suspension (Example 3): about 6.6.

[2] = Stability of bulk olmesartan medoxomil in solution at different pH; assay type: physicochemical
Experimental: The main degradation product is olmesartan acid. […] In a solution at pH=7 the amount of formed olmesartan acid increases by 0.5% in 24 hours, while in 1M HCl the amount increases by approximately 6%. The amounts of individual and total impurities are measured in area % and determined by HPLC using the following procedure: a sample solution was prepared by diluting quantity of pulverized tablet equivalent to 25 mg of olmesartan medoxomil in 50 ml volumetric flask to volume with diluent (Eluent A+Eluent B=50%/50%). Column Waters Xbridge C18, 150×4.6 mm, 3.5 μm was used and eluted by Eluent A (0.025 M KH2PO4 adjusted to pH=2.5 with 50% H3PO4) and Eluent B (acetonitrile) with following gradient: A:B=100:0, from 15 to 30 minutes A:B=70:30, after 30 min A.B=0:100. Flow rate was […], Injection volume was 20 μl, column temperature was 30° C., detection wavelength at 225 nm.

Compound | pH of excipient [1] | Hydrolysis at basic conditions ([2]; basic conditions) | pH range in which most stable ([2]; bulk) | Increase of amount of formed olmesartan acid ([2]; in 1M HCl) | Increase of amount of formed olmesartan acid ([2]; solution at pH=7, 24 hours) [%]
CCCCCCCCCCCCCCCCCC(=O)[O-].CCCCCCCCCCCCCCCCCC(=O)[O-].[Mg+2] [Mg stearate] | about 9.5 | – | – | – | –
OC[C@H]1O[C@@H](O[C@H]2[C@H](O)[C@@H](O)C(O)O[C@@H]2CO)[C@H](O)[C@@H](O)[C@H]1O (stereo partly shown) [lactose] | about 5.2 | – | – | – | –
CCCc1nc(C(C)(C)O)c(C(=O)OCc2oc(=O)oc2C)n1Cc1ccc(-c2ccccc2-c2nnn[nH]2)cc1 [olmesartan medoxomil, 4-(1-hydroxy-1-methylethyl)-2 propyl-1-[[2′-(1H-tetrazol-5-yl) [1,1′-biphenyl]-4-yl]methyl]-1H-imidazole-5-carboxylic acid (5-methyl-2-oxo-1,3-dioxol-4-yl)methyl ester] | – | almost completely hydrolyzes | 3-5 | approximately 6% | 0.5
CCCCCCCCCCCCCCCCCC(=O)O [stearic acid] | about 5.4 | – | – | – | –
